Test results: US12473293B2, “Pharmacologically active heterocyclic-substituted pyrazolo[1,5-a]pyrimidine derivatives” (Richter Gedeon Nyrt., priority 2020, dated 2025)
Counter-ions that a name gives are not always drawn.

Biological target: T1, GABAB receptor (Rattus norvegicus, UniProt O88871+Q9Z0U4)
T1 construct: from tissue; host or cells: rat brain cortex membranes
Assay: In vitro [35S]GTPγS binding assay in rat cortical membranes
Assay type: biochemical
Details: PAM EC50, [35S]GTPγS binding, read-out: In vitro PAM potency
Protocol: In Vitro [^35S]GTPγS Binding Assay in Rat Cortical Membranes
Cortices of freshly harvested rat brains were dissected on an ice-cold surface and homogenized by a glass Dounce homogeniser immediately in ice-cold buffer containing 50 mM Tris, 5 mM MgCl2 and 1 mM EDTA (pH=7.6). Tissue homogenates were centrifuged at 40000 g for 15 min at 4° C. Membrane pellets were resuspended in the same buffer and membranes were incubated for 10 min at 30° C. in a shaking water bath to eliminate endogenous GABA. Homogenates were centrifuged again under the same conditions. The final pellets were resuspended in ice-cold buffer (pH=7.6) containing 50 mM Tris, 100 mM NaCl, 7 mM MgCl2, 1 mM EDTA and 1 mM dithiotreithol (DTT) to yield a concentration of 20 mg tissue weight/ml and frozen at −70° C. until use. The assay was done in a buffer containing 50 mM Tris (pH=7.4), 100 mM NaCl, 7 mM MgCl2, 1 mM EDTA and 1 mM DTT. Each assay tube contained 150 μL GDP (in a final concentration of 50 μM), 100 μL ligand and 125 μL of the membrane suspension ([…]). The assay tubes were preincubated for 10 min at 30° C. to assure equilibrium. Nonspecific binding was determined in the presence of 10 μM GTPγS; basal binding was determined in the presence of buffer only. After addition of […] [^35S]GTPγS in a volume of 25 μL to the tubes, membranes were incubated for an additional 60 min at 30° C. The assay was terminated by rapid filtration through Packard UniFilter GF/B using a Packard harvester and washed four times with 1 ml ice-cold buffer. After drying the filters at 40° C. for 1 h, 40 μL Microscint (Packard) was added to the filters and radioactivity of the filters was determined by a TopCount NXT (PerkinElmer, Waltham, MA; Alper and Nelson, Eur. J. Pharmacol. 1998, 343, 303-312; Rinken et al, Biochem. Pharmacol. 1999, 57, 155-162). Data thus gathered were used to determine PAM EC50 values for each compound as primary in vitro activity end point.
In Table 1 compounds of this invention measured in the [^35S]GTPγS binding assay are listed.

T1 sequence (O88871 41-940): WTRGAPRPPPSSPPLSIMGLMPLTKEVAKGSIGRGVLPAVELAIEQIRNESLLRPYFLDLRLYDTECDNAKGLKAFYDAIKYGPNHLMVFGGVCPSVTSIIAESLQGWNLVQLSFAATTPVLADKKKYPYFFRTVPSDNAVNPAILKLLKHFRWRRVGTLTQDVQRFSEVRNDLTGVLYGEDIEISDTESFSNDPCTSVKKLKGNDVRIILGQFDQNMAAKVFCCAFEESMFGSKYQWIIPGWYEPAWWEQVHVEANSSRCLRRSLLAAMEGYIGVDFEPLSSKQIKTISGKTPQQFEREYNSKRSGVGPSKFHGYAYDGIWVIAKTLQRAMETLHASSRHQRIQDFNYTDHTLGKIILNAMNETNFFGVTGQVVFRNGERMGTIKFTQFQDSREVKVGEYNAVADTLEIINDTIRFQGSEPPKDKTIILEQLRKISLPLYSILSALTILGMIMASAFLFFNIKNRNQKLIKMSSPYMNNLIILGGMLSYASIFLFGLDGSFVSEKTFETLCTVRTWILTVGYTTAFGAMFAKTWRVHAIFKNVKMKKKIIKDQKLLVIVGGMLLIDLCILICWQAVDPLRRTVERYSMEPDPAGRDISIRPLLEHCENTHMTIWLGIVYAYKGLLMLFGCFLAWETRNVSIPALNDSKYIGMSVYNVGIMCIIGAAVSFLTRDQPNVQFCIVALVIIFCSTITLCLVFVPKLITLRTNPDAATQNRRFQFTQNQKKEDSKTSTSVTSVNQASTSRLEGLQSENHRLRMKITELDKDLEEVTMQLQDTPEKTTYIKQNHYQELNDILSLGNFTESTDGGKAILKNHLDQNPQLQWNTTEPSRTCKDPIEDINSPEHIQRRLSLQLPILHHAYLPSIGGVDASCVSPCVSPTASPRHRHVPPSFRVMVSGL
T1 sequence (Q9Z0U4 17-960 limits assumed): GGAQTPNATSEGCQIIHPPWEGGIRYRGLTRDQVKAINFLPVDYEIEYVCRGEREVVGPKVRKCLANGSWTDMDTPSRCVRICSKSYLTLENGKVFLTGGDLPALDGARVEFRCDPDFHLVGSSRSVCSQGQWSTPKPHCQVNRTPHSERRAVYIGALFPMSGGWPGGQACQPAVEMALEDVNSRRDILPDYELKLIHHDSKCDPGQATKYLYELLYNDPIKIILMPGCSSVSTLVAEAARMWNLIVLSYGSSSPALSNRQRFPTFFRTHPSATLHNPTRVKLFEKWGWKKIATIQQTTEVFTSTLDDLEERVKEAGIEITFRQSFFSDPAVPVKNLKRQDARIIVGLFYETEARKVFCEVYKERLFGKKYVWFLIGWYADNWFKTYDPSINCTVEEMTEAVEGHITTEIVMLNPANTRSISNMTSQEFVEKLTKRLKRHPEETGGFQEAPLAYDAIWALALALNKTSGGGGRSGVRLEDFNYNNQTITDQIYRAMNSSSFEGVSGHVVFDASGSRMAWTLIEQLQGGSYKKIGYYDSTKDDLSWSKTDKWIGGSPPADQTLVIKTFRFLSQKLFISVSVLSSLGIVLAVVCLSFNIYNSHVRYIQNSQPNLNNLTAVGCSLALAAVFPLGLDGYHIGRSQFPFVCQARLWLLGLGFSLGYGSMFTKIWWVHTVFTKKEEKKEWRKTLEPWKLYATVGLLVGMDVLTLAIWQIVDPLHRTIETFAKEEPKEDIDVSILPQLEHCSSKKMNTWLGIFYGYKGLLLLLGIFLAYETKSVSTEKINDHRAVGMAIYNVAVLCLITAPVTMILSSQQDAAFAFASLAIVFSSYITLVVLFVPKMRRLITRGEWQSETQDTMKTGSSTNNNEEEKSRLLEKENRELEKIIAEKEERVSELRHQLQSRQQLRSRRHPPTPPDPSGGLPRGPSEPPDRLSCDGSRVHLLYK

| Compound | EC50 [nM] |
| --- | --- |
| Cc1cc([C@@H]2CN(C=O)C(C)(C)CO2)n2nc([C@H]3CC[C@H](C(F)(F)F)CC3)cc2n1 (single isomer, unassigned) [Example 10] | 1000 to 10000 |
| Cc1nc2cc([C@H]3CC[C@H](C(F)(F)F)CC3)nn2c([C@]2(C)CCCN(CC(N)=O)C2)c1C [Example 49] | 1000 to 10000 |
| Cc1cc([C@H]2CCCOC2)n2nc([C@H]3CC[C@H](C(F)(F)F)CC3)cc2n1 (single isomer, unassigned) [Example 28] | < 100 |
| COC(=O)N1CCC[C@H](c2cc(C)nc3cc([C@H]4CC[C@H](C(F)(F)F)CC4)nn23)[C@H]1C (racemic) [Example 92] | < 100 |
| Cc1cc([C@]2(C)CCCN(CC#N)C2)n2nc([C@H]3CC[C@H](C(F)(F)F)CC3)cc2n1 [Example 50] | 100 to 1000 |
| Cc1nc2cc([C@H]3CC[C@H](C(F)(F)F)CC3)nn2c([C@]2(C)CCCN(CC#N)C2)c1C [Example 18, 2-[(3R)-3-{5,6-dimethyl-2-[trans-4-(trifluoromethyl)cyclohexyl]pyrazolo[1,5-a]pyrimidin-7-yl}-3-methylpiperidin-1-yl]acetonitrile hydrochloride] | 100 to 1000 |
| CCc1c(C)nc2cc([C@H]3CC[C@H](C(F)(F)F)CC3)nn2c1[C@]1(C)CCCN(C(C)=O)C1 [Example 34] | < 100 |
| Cc1cc([C@]2(C)CCCN(S(N)(=O)=O)C2)n2nc([C@H]3CC[C@H](C(F)(F)F)CC3)cc2n1 [Example 71] | 1000 to 10000 |
| Cc1nc2cc([C@H]3CC[C@H](C(F)(F)F)CC3)nn2c([C@@H]2CCCN(C(=O)[C@@H](N)CO)C2)c1C [Example 21, (2S)-2-amino-1-[(3R)-3-{5,6-dimethyl-2-[trans-4-(trifluoromethyl)cyclohexyl]pyrazolo[1,5-a]pyrimidin-7-yl}piperidin-1-yl]-3-hydroxypropan-1-one] | 1000 to 10000 |
| Cc1cc([C@@H]2CCCN(C(=O)N3CCOCC3)C2)n2nc([C@H]3CC[C@H](C(F)(F)F)CC3)cc2n1 [Example 65] | 1000 to 10000 |
| Cc1cc([C@H]2CCCN(C=O)[C@H]2C)n2nc([C@H]3CC[C@H](C(F)(F)F)CC3)cc2n1 (racemic) [Example 81] | 100 to 1000 |
| Cc1cc([C@@H]2CCCN(C3CCOC3)C2)n2nc([C@H]3CC[C@H](C(F)(F)F)CC3)cc2n1 (some centres unmarked) [Example 63] | 100 to 1000 |
| Cc1cc(C2CN(C=O)CCC2(C)C)n2nc([C@H]3CC[C@H](C(F)(F)F)CC3)cc2n1 (some centres unmarked) [Example 59] | 100 to 1000 |
| Cc1cc([C@@H]2CN(C=O)CC[C@@H]2C)n2nc([C@H]3CC[C@H](C(F)(F)F)CC3)cc2n1 (single isomer, unassigned) [Example 8] | 1000 to 10000 |
| Cc1nc2cc([C@H]3CC[C@H](C(F)(F)F)CC3)nn2c([C@@H]2CN(C)CC[C@@H]2C)c1C (racemic) [Example 56] | 1000 to 10000 |
| CC(=O)N1CCCC(c2c(C(C)C)c(C)nc3cc([C@H]4CC[C@H](C(F)(F)F)CC4)nn23)C1 (some centres unmarked) [Example 40] | < 100 |
| Cc1cc([C@@H]2CCCOC2)n2nc([C@H]3CC[C@H](C(F)(F)F)CC3)cc2n1 (single isomer, unassigned) [Example 29] | 100 to 1000 |
| Cc1cc(C2CN(C)CCC2(C)C)n2nc([C@H]3CC[C@H](C(F)(F)F)CC3)cc2n1 (some centres unmarked) [Example 61] | 100 to 1000 |
| CC(=O)N1CCC[C@@](C)(c2c(C)c(C)nc3cc([C@H]4CC[C@H](C(F)(F)F)CC4)nn23)C1 [Example 45] | 100 to 1000 |
| CCC1CCN(C=O)CC1c1cc(C)nc2cc([C@H]3CC[C@H](C(F)(F)F)CC3)nn12 (some centres unmarked) [Example 72] | 100 to 1000 |
| 2-[(3R)-3-{5,6-dimethyl-2-[trans-4-(trifluoromethyl)cyclohexyl]pyrazolo[1,5-a]pyrimidin-7-yl}-3-methylpiperidin-1-yl]acetic acid hydrochloride [Example 19] | 100 to 1000 |
| COC(=O)N1CC(c2c(C)c(C)nc3cc([C@H]4CC[C@H](C(F)(F)F)CC4)nn23)CC(F)(F)C1 (some centres unmarked) [Example 74] | 100 to 1000 |
| CC(=O)N1CC[C@H](C)[C@H](c2c(C)c(C)nc3cc([C@H]4CC[C@H](C(F)(F)F)CC4)nn23)C1 (racemic) [Example 55] | 100 to 1000 |
| Cc1cc([C@H]2CN(C=O)[C@@H](C)CO2)n2nc([C@H]3CC[C@H](C(F)(F)F)CC3)cc2n1 [Example 103] | 100 to 1000 |
| Cc1nc2cc([C@H]3CC[C@H](C(F)(F)F)CC3)nn2c(C2CN(C=O)CCO2)c1C (some centres unmarked) [Example 80] | 100 to 1000 |
| Cc1cc([C@@H]2CN(C=O)[C@@H](C)CO2)n2nc([C@H]3CC[C@H](C(F)(F)F)CC3)cc2n1 [Example 98] | 1000 to 10000 |
| Cc1cc([C@@H]2CN(S(C)(=O)=O)CC[C@@H]2C)n2nc([C@H]3CC[C@H](C(F)(F)F)CC3)cc2n1 (racemic) [Example 85] | 100 to 1000 |
| CC(=O)N1CCC[C@@](C)(c2cc(C)nc3cc([C@H]4CC[C@H](C(F)(F)F)CC4)nn23)C1 [Example 41] | < 100 |
| CCc1c(C)nc2cc([C@H]3CC[C@H](C(F)(F)F)CC3)nn2c1[C@@]1(C)CCCN(C(C)=O)C1 [Example 35] | < 100 |
| CCOC(=O)N1CCC[C@H](c2cc(C)nc3cc([C@H]4CC[C@H](C(F)(F)F)CC4)nn23)[C@@H]1C [Example 107] | 1000 to 10000 |

Next, values leading:

| EC50 [nM] | Compound |
| --- | --- |
| 100 to 1000 | CC(=O)N1CCOC(c2c(C)c(C)nc3cc([C@H]4CC[C@H](C(F)(F)F)CC4)nn23)C1 (some centres unmarked) [Example 70] |
| 100 to 1000 | Cc1cc([C@@H]2CN(C(=O)N(C)C)CC[C@@H]2C)n2nc([C@H]3CC[C@H](C(F)(F)F)CC3)c(F)c2n1 (racemic) [Example 46] |
| 100 to 1000 | Cc1cc([C@H]2CN(C(=O)c3nnc(C)o3)CCO2)n2nc([C@H]3CC[C@H](C(F)(F)F)CC3)cc2n1 [Example 123] |
| 100 to 1000 | COC(=O)N1CCO[C@H](c2cc(C)nc3c(F)c([C@H]4CC[C@H](C(F)(F)F)CC4)nn23)C1 [Example 130] |
| 100 to 1000 | CC(=O)N1CCO[C@@H](c2c(C)c(C)nc3cc([C@H]4CC[C@H](C(F)(F)F)CC4)nn23)C1 [Example 88] |
| 100 to 1000 | Cc1cc([C@H]2CN(S(C)(=O)=O)CCO2)n2nc([C@H]3CC[C@H](C(F)(F)F)CC3)cc2n1 [Example 119] |
| 100 to 1000 | Cc1cc([C@H]2CN(C=O)CCO2)n2nc([C@H]3CC[C@H](C(F)(F)F)CC3)cc2n1 [Example 86] |
| 100 to 1000 | COC(=O)N1CCSC(c2cc(C)nc3cc([C@H]4CC[C@H](C(F)(F)F)CC4)nn23)C1 (stereo partly drawn) [Example 126, methyl 2-{5-methyl-2-[trans-4-(trifluoromethyl)cyclohexyl]pyrazolo[1,5-a]pyrimidin-7-yl}thiomorpholine-4-carboxylate] |
| 1000 to 10000 | COC(=O)N1CCO[C@H](c2cc(C)nc3cc([C@H]4CC[C@H](C(F)(F)F)CC4)nn23)C1 [Example 93] |
| 100 to 1000 | Cc1cc([C@H]2CN(C(=O)c3cncs3)CCO2)n2nc([C@H]3CC[C@H](C(F)(F)F)CC3)cc2n1 [Example 118] |
| 100 to 1000 | COCCOC(=O)N1CCO[C@@H](c2cc(C)nc3cc([C@H]4CC[C@H](C(F)(F)F)CC4)nn23)C1 [Example 100] |
| 1000 to 10000 | CCOC(=O)N1CCO[C@H](c2cc(C)nc3cc([C@H]4CC[C@H](C(F)(F)F)CC4)nn23)C1 [Example 95] |
| 100 to 1000 | Cc1cc([C@H]2CN(C(=O)c3cscn3)CCO2)n2nc([C@H]3CC[C@H](C(F)(F)F)CC3)cc2n1 [Example 121] |
| ≥ 10000 | COC(=O)N1CCS(=O)(=O)[C@@H](c2cc(C)nc3cc([C@H]4CC[C@H](C(F)(F)F)CC4)nn23)C1 [Example 90] |
| < 100 | Cc1cc([C@H]2CN(S(N)(=O)=O)CCO2)n2nc([C@H]3CC[C@H](C(F)(F)F)CC3)cc2n1 [Example 25, (2R)-2-{5-methyl-2-[trans-4-(trifluoromethyl)cyclohexyl]pyrazolo[1,5-a]pyrimidin-7-yl}morpholine-4-sulfonamide] |
| 1000 to 10000 | COC(=O)N1CCOC(C)(c2cc(C)nc3cc([C@H]4CC[C@H](C(F)(F)F)CC4)nn23)C1 (some centres unmarked) [Example 73] |
| 100 to 1000 | COC(=O)N1CC[C@@H](C)[C@@H](c2cc(C)nc3cc([C@H]4CC[C@H](C(F)(F)F)CC4)nn23)C1 (single isomer, unassigned) [Example 7] |
| 100 to 1000 | CC(=O)N1CCO[C@@H](c2cc(C)nc3cc([C@H]4CC[C@H](C(F)(F)F)CC4)nn23)C1 [Example 109] |
| 100 to 1000 | Cc1cc([C@H]2CN(C(N)=O)CCO2)n2nc([C@H]3CC[C@H](C(F)(F)F)CC3)cc2n1 [Example 26, (2R)-2-{5-methyl-2-[trans-4-(trifluoromethyl)cyclohexyl]pyrazolo[1,5-a]pyrimidin-7-yl}morpholine-4-carboxamide] |
| 1000 to 10000 | COC(=O)N1CC[S+]([O-])C(c2cc(C)nc3cc([C@H]4CC[C@H](C(F)(F)F)CC4)nn23)C1 (some centres unmarked) [Example 17] |
